Test results reported in ChEMBL document CHEMBL1201862, “PubChem BioAssay data set” (2004).
Activity calls are given as the source filed them.

Tests used:
Bcl-2-like protein 10 = target: T1, Bcl-2-like protein 10 (Homo sapiens, UniProt Q9HD36); assay: displacers of TR3 peptide from Bcl-B, primary screen, selectivity assay for Bfl-1 inhibitor project, biochemical, fluorescence polarization, FITC-TR3 peptide (AID 748);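 also: fluorescence polarization from a fluorescein-labelled TR3 peptide binding purified Bcl-B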
T1 sequence (Q9HD36 whole entry): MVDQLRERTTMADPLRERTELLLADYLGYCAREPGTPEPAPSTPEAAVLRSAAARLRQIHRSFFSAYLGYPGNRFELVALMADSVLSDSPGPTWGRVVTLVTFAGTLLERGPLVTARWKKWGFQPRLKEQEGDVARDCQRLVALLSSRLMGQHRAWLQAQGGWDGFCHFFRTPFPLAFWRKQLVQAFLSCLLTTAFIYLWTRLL

Cytochrome P450 3A4 [1] = target: T2, Cytochrome P450 3A4 (Homo sapiens, UniProt P08684);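 also: CYP3A4 tested as one member of a cytochrome P450 panel screen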
T2 sequence (P08684 whole entry): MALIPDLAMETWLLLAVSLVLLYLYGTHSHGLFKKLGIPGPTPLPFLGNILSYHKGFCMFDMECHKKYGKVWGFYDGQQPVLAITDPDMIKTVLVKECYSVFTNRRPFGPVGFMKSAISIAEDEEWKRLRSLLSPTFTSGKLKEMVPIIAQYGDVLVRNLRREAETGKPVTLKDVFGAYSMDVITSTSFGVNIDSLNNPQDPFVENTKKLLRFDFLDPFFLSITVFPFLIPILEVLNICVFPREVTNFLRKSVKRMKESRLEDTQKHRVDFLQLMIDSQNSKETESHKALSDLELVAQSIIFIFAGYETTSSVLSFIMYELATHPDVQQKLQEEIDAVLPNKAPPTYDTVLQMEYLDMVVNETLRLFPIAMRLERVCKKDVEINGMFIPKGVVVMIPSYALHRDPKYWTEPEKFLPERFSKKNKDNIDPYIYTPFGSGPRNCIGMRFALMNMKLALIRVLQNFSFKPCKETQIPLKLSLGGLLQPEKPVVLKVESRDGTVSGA

Troponin, cardiac muscle = Troponin, cardiac muscle (Homo sapiens, UniProt P19429+P45379+P63316); assay: Fluorescence-based biochemical high throughput dose response assay for activators of the calcium sensitivity of cardiac Regulated Thin Filaments (RTF). [Related pubchem assays (depositor defined):AID493008, AID493018, AID504382, AID504383]; type: protein-complex assay
Aminopeptidase N = target: T3, Aminopeptidase N (Plasmodium falciparum FcB1/Columbia, UniProt O96935); assay: P. falciparum M1AAP inhibitors, biochemical, fluorogenic H-Leu-NHMec substrate, 1536-well (AID 1445); design: species or system Plasmodium falciparum 3D7, 3D7
T3 sequence (O96935 whole entry): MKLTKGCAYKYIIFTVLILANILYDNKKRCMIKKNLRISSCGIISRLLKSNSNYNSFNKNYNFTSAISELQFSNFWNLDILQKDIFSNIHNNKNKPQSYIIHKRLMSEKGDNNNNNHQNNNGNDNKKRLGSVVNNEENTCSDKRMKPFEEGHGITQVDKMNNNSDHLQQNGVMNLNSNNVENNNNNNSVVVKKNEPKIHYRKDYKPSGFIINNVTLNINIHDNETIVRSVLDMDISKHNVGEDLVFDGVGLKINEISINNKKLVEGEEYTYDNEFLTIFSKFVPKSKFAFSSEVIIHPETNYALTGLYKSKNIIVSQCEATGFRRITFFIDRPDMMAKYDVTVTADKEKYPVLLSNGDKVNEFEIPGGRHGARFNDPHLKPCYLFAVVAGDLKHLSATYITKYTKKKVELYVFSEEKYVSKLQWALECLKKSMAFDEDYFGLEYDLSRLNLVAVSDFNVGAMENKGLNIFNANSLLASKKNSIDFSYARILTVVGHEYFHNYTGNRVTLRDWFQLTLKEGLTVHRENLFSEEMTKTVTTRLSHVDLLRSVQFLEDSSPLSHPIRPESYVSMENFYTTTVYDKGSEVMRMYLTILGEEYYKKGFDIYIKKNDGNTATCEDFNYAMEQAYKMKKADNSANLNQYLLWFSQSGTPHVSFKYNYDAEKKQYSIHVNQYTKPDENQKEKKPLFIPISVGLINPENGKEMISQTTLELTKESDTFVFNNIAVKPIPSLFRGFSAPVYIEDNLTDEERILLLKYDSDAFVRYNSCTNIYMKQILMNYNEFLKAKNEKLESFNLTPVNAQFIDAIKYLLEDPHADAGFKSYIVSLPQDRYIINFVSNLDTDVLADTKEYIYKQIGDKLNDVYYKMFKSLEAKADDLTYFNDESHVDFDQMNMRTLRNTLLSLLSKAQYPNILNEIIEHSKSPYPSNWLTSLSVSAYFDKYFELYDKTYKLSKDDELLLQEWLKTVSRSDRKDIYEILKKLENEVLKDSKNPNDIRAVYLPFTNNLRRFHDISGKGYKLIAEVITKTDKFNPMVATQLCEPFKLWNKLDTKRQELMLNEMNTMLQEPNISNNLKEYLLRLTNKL

[2] = inhibitors of intracellular T. cruzi replication, confirmation, NIH3T3 host cells, beta-gal luminescence (AID 2044); type: functional, cell-based;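 also: intracellular parasites grown in NIH/3T3 mouse fibroblasts as host cells; luminescent beta-galactosidase reporter signal from transgenic T. cruzi replicating inside host cells; inhibitors lower the luminescence signal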
[3] = cytotoxicity toward NIH3T3 fibroblasts, dose response, counter-screen, cell-based, ATP luminescence, mouse fibroblasts (AID 2010); type: functional;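 also: cells exposed to compound for about 90 hours before reading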
[4] = target: Glucose-6-phosphate 1-dehydrogenase (Homo sapiens, UniProt P11413); assay: human G6PD enzyme inhibitors, dose response, selectivity assay for P. falciparum G6PD inhibitor project, biochemical, fluorescence (AID 504792); type: functional
Sequence of Glucose-6-phosphate 1-dehydrogenase (P11413 whole entry): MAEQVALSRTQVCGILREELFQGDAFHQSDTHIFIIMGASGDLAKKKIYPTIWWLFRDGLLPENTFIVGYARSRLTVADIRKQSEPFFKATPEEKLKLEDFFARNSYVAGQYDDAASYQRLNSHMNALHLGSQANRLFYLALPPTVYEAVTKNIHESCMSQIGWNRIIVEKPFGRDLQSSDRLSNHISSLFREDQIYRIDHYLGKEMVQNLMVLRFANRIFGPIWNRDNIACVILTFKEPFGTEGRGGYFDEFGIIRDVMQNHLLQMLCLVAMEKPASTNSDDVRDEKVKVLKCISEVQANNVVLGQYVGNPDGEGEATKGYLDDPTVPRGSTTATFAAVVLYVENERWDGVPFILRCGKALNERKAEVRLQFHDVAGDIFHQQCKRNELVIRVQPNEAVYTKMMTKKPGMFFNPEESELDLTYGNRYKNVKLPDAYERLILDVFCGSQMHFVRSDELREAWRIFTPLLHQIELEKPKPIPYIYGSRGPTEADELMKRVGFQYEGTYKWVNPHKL

Cytochrome P450 3A4 [5] = target: T2, Cytochrome P450 3A4; remark: listed apart in the source
[6] = target: Voltage-gated inwardly rectifying potassium channel KCNH2 (Homo sapiens, UniProt Q12809); conditions: Potency;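 also: confirmatory quantitative high-throughput screen measuring inhibition of hERG channel activity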
Sequence of Voltage-gated inwardly rectifying potassium channel KCNH2 (Q12809 whole entry): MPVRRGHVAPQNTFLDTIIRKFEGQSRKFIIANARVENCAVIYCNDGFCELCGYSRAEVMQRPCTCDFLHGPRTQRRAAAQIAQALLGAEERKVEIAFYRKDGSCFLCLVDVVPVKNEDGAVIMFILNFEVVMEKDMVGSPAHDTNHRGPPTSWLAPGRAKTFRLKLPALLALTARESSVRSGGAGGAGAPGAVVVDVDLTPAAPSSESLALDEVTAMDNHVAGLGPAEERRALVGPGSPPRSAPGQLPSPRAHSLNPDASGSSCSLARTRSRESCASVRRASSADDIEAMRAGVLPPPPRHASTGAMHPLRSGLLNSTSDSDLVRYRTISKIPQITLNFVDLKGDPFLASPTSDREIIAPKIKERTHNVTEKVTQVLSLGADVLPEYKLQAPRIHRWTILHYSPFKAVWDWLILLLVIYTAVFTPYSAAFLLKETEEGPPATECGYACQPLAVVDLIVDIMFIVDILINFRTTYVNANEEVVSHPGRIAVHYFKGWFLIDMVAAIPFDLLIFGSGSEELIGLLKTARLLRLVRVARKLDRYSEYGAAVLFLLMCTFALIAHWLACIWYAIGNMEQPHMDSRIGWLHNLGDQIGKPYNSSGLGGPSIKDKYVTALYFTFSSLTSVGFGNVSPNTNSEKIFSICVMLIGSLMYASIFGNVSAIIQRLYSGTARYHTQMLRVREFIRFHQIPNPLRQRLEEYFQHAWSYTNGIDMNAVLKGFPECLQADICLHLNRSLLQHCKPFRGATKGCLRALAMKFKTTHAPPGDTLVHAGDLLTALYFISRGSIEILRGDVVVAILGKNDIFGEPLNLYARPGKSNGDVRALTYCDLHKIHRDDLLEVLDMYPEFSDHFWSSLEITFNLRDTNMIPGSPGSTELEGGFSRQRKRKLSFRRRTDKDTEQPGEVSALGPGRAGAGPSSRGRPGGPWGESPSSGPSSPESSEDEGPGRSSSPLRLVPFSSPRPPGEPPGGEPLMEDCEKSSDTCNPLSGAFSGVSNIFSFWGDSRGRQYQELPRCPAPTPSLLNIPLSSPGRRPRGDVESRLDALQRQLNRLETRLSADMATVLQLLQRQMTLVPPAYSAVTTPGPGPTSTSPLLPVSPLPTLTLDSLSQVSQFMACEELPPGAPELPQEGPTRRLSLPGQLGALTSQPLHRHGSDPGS

[7] = C. albicans growth with fluconazole, confirmation, fluorescence, retest (AID 2467); type: functional, cell-based
[8] = Luminescence Cell-Based Dose Retest to Confirm Inhibitors of Cancer Stem Cells. [Related pubchem assays (depositor defined):AID2717, AID2721]; type: functional; conditions: Homo sapiens
[9] = NIH-3T3 fibroblast cytotoxicity, dose response, cytotoxicity control, cell-based, fluorescence, Alamar Blue, secondary assay (AID 2327); type: functional;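 also: NIH-3T3 mouse fibroblasts cultured with fluconazole at 8 µg/mL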
SUMO-activating enzyme = SUMO-activating enzyme (Homo sapiens, UniProt Q9UBT2); assay: SUMOylation inhibitor hit validation, confirmation, SUMOylation inhibitor project, biochemical, AlphaScreen (AID 2018); type: functional
Sequence of SUMO-activating enzyme (Q9UBE0 whole entry): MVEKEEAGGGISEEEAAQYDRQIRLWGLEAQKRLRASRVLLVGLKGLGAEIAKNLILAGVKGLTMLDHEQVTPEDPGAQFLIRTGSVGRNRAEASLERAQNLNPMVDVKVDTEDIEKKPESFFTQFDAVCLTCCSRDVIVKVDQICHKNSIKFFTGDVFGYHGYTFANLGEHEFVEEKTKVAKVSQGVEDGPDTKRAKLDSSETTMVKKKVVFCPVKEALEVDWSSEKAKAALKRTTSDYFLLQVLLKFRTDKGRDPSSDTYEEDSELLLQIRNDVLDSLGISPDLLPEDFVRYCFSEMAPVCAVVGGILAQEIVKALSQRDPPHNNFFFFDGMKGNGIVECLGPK
Sequence of SUMO-activating enzyme (Q9UBT2 whole entry): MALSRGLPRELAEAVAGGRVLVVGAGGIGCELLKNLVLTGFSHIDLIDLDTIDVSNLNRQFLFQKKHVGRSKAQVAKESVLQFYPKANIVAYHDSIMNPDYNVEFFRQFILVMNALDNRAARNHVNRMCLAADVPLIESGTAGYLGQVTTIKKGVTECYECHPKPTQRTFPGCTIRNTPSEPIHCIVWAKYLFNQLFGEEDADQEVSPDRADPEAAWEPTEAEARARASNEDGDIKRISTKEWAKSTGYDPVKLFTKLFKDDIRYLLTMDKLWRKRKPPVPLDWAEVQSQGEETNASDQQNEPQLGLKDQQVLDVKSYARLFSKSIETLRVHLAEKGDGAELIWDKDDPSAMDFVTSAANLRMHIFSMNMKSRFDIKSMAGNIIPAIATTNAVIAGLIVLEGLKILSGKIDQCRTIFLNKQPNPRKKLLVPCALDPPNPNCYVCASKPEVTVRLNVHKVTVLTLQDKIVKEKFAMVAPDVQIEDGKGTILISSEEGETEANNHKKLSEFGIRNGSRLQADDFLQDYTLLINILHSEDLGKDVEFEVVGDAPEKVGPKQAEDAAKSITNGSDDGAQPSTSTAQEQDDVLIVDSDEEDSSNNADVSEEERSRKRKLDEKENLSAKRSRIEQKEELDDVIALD

[10] = target: DNA dC->dU-editing enzyme APOBEC-3A (Homo sapiens, UniProt P31941); assay: Dose Response confirmation of small molecule APOBEC3A DNA Deaminase Inhibitors via a fluorescence-based single-stranded DNA deaminase assay. [Related pubchem assays (depositor defined):AID493011, AID493024]; type: functional
Sequence of DNA dC->dU-editing enzyme APOBEC-3A (P31941 whole entry): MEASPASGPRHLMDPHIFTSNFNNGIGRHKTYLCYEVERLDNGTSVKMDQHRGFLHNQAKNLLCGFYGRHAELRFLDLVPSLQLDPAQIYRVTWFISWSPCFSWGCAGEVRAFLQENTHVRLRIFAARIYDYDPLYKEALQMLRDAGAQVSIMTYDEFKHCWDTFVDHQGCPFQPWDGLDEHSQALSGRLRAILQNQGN

[11] = target: DNA dC->dU-editing enzyme APOBEC-3G (Homo sapiens, UniProt Q9HC16); type: functional;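 also: Dose-response counterscreen measuring inhibition of APOBEC3G DNA deaminase activity, run while confirming APOBEC3A inhibitors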
Sequence of DNA dC->dU-editing enzyme APOBEC-3G (Q9HC16 whole entry): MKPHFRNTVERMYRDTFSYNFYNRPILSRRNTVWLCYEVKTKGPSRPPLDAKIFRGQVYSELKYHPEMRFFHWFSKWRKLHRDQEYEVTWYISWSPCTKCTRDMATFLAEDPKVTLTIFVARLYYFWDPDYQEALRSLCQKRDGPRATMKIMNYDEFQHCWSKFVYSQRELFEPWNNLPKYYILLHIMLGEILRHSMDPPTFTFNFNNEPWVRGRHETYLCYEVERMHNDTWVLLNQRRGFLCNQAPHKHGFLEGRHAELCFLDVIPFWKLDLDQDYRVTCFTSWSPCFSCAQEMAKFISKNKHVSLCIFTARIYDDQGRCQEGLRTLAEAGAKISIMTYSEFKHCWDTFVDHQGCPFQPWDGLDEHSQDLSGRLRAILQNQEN

Compound: Cc1cc(C)c(C)c(S(=O)(=O)N2CCC(C(=O)OCC(=O)N3c4ccccc4NC(=O)C3(C)C)CC2)c1C
- IC50 (Bcl-2-like protein 10): 45.3 µM (active)

Compound: O=C(c1cccc(F)c1)N1CCC2(CCN(Cc3cc(C(F)(F)F)cc(C(F)(F)F)c3)CC2)CC1
- AC50 (Cytochrome P450 3A4 [1]): inconclusive

Compound: Cc1ccc(N2C(=O)NC(=O)/C(=C/C=C/Nc3ccccc3)C2=O)cc1
- EC50 (Troponin, cardiac muscle): 5.48 µM (active)

Compound: Cc1cc(=O)oc2c(CN(CC(C)C)CC(C)C)c(O)ccc12
- IC50 (Aminopeptidase N): 74 µM (active)

Compound: CCOC(=O)c1cnc2ccc(C)cc2c1Sc1ccccc1C(=O)OC
- EC50 [2]: 4.01 µM (active)
- EC50 [3]: > 60 µM (not active)
- IC50 [4]: > 80 µM (inactive)
- AC50 (Cytochrome P450 3A4 [5]): 39.8 µM (inconclusive)

Compound: O=[N+]([O-])c1ccccc1-c1ccccc1
- AC50 [6]: 39.8 µM (inconclusive)

Compound: CCOC(=O)c1cnc(-c2ccccc2)nc1Oc1ccccc1
- AC50 (Cytochrome P450 3A4 [1]): inconclusive

Compound: CCc1cc(-c2[nH]nc(C)c2-c2ccccc2Cl)c(O)cc1OC
- IC50 [4]: > 80 µM (inactive)
- EC50 [7]: > 38 µM (not active)
- AC50 [8]: 4.42 µM (active)
- EC50 [9]: 6.06 µM (inconclusive)

Compound: O=C(c1ccc2c(c1)nc(S)n1c3ccccc3nc21)N1CCN(c2ncccn2)CC1
- IC50 (SUMO-activating enzyme): 50.6 µM (active)

Compound: N#Cc1ccc(CN2CC3(CCN(C(=O)c4cccc(F)c4)CC3)C2)cc1
- AC50 (Cytochrome P450 3A4 [1]): inconclusive

Compound: C[N+]1(CC(COCc2ccccc2)OC(=O)Cc2ccccc2)CCOCC1 (stereo not drawn)
- IC50 [10]: 2.41 µM (active)
- IC50 [11]: 2.42 µM (active)
